Data taken from patent US20240158446A1, “CYCLIC COMPOUND HAVING SELECTIVE INHIBITORY ACTION ON KRAS OVER HRAS AND NRAS” (CHUGAI SEIYAKU KABUSHIKI KAISHA, priority 2021, published 2024).
Read-outs that look alike come from different tables or passages of the source. Where a SMILES comes first, the peptide text is derived from it. Bridges are numbered along the chain shown (N, C = ends). [ ]: non-standard residue; d: D form. The star is where a group is joined. hPhe(3-Cl-4-CF3) = N[C@@H](CCc1ccc(C(F)(F)F)c(Cl)c1)C(=O)O; NPrPhe(4-CF3) = CCCN[C@@H](Cc1ccc(C(F)(F)F)cc1)C(=O)O; NMeGly(cPent) = CN[C@H](C(=O)O)C1CCCC1; NMeD = CN[C@@H](CC(=O)O)C(=O)O; NMeL = CN[C@@H](CC(C)C)C(=O)O; Morpholide = C1CN(*)CCO1; Ac4c = NC1(C(=O)O)CCC1; NEtG = CCNCC(=O)O; Sar = CNCC(=O)O

Columns and labels:
[1] = system: human lung cancer strain NCI-H441;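 also: cell proliferation inhibition after four days measured by CellTiter-Glo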
[2] = molecular target: GDP-bound KRAS wild-type protein (Homo sapiens, UniProt P01116); test: Binding to KRAS by surface plasmon resonance (SPR), Single Cycle Kinetics; conditions: GDP-bound KRAS wild-type protein, read-out: KRAS KD
Chain of GDP-bound KRAS wild-type protein (P01116 whole entry): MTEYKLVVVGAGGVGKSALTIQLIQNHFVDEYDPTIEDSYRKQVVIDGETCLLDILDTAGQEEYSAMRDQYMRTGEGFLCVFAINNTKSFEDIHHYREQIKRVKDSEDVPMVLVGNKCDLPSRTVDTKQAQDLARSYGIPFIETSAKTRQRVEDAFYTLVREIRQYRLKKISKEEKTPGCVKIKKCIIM

[3] = molecular target: GDP-bound HRAS wild-type protein (Homo sapiens, UniProt P01112); test: Binding to HRAS by surface plasmon resonance (SPR), Single Cycle Kinetics; conditions: for HRAS/KRAS (ratio of KD value for HRAS to KD value for KRAS): SPR, GDP-bound HRAS wild-type protein vs GDP-bound KRAS wild-type protein
Chain of GDP-bound HRAS wild-type protein (P01112 whole entry): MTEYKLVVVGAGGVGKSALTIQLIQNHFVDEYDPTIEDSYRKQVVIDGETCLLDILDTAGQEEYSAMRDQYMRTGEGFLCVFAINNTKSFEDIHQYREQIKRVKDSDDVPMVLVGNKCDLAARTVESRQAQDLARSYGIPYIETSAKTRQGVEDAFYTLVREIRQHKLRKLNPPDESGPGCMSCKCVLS

[4] = molecular target: GDP-bound NRAS wild-type protein (Homo sapiens, UniProt P01111); test: Binding to NRAS by surface plasmon resonance (SPR), Single Cycle Kinetics; conditions: for NRAS/KRAS (ratio of KD value for NRAS to KD value for KRAS): SPR, GDP-bound NRAS wild-type protein vs GDP-bound KRAS wild-type protein
Chain of GDP-bound NRAS wild-type protein (P01111 whole entry): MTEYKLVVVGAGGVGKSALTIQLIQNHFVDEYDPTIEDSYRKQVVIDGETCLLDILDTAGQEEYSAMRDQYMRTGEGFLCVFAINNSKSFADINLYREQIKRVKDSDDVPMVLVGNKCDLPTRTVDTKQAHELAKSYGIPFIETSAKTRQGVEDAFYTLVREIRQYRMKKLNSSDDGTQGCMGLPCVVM

[5] = SPR, Single Cycle Kinetics, 1:1 binding model
[6] = SPR Single Cycle Kinetics, 1:1 binding model

Row | Structure (SMILES) | IC50 [1] [nM] | Kd [2, 5] [nM] | Kd [2, 6] [nM] | Kd ([2]; SPR, Single Cycle Kinetics) [nM] | HRAS/KRAS (ratio of KD value for HRAS to KD value for KRAS) ([3]; KD ratio class) | NRAS/KRAS (ratio of KD value for NRAS to KD value for KRAS) ([4]; KD ratio class) | HRAS/KRAS (ratio of KD value with respect to GDP-bound HRAS wild-type protein to KD value with respect to KRAS) ([3]; SPR KD ratio HRAS/KRAS, class symbols) | NRAS/KRAS (ratio of KD value with respect to GDP-bound NRAS wild-type protein to KD value with respect to KRAS) ([4]; SPR KD ratio NRAS/KRAS, class symbols) | HRAS/KRAS (ratio of KD value for HRAS to KD value for KRAS) [3] | NRAS/KRAS (ratio of KD value for NRAS to KD value for KRAS) [4]
1 | CCO[C@@H]1C[C@H]2C(=O)NC3(CCCC3)C(=O)N(C)[C@@H](C3CCCC3)C(=O)N(C)[C@H](C(=O)N3CCOCC3)CC(=O)N(C)[C@@H](CC)C(=O)N[C@@H]([C@@H](C)CC)C(=O)N(C)CC(=O)N(C)[C@H]3CC[C@@H](C)CN(C3=O)[C@@H](Cc3ccc(C(F)(F)F)cc3)C(=O)N(C)CC(=O)N[C@@H](CCc3ccc(C(F)(F)F)c(Cl)c3)C(=O)N2C1 [PP1377] | 5.8 | 0.087 |  |  | B (a compound having 3 or more and less than 10 is denoted as B) | B (a compound having 3 or more and less than 10 is denoted as B) |  |  |  | 
2 | CCO[C@@H]1C[C@H]2C(=O)NC3(CCC3)C(=O)N(C)[C@@H](C(CC)CC)C(=O)N(C)[C@H](C(=O)N(C)C)CC(=O)N(C)[C@@H](C)C(=O)N[C@@H]([C@@H](C)CC)C(=O)N(C)CC(=O)N(C)[C@H]3C/C=C\CCN(C3=O)[C@@H](Cc3ccc(C(F)(F)F)cc3)C(=O)N(C)CC(=O)N[C@@H](CCc3cc(F)c(C(F)(F)F)c(F)c3)C(=O)N2C1 [PP1199, (2S,8S,12R,14S,20S,23S,27S,30S,36S,38Z)-8-[2-[3,5-difluoro-4-(trifluoromethyl)phenyl]ethyl]-12-ethoxy-20-(1-ethylpropyl)-N,N,4,19,22,26,27,32,35-nonamethyl-30-[(1S)-1-methylpropyl]-3,6,9,15,18,21,25,28,31,34,42-undecaoxo-2-[[4-(trifluoromethyl)phenyl]methyl]spiro[1,4,7,10,16,19,22,26,29,32,35-undecazatricyclo[34.5.1.0^10,14]dotetracont-38-ene-17,1′-cyclobutane]-23-carboxamide] | 39.1 |  |  | 0.17 |  |  |  |  | A (a compound having 10 or more and less than 20 is denoted as A) | A (a compound having 10 or more and less than 20 is denoted as A)

More lines, main results first:

Row | IC50 [1] [nM] | Kd [2, 5] [nM] | Kd [2, 6] [nM] | Kd ([2]; SPR, Single Cycle Kinetics) [nM] | Structure (SMILES) | HRAS/KRAS (ratio of KD value for HRAS to KD value for KRAS) ([3]; KD ratio class) | NRAS/KRAS (ratio of KD value for NRAS to KD value for KRAS) ([4]; KD ratio class) | HRAS/KRAS (ratio of KD value with respect to GDP-bound HRAS wild-type protein to KD value with respect to KRAS) ([3]; SPR KD ratio HRAS/KRAS, class symbols) | NRAS/KRAS (ratio of KD value with respect to GDP-bound NRAS wild-type protein to KD value with respect to KRAS) ([4]; SPR KD ratio NRAS/KRAS, class symbols) | HRAS/KRAS (ratio of KD value for HRAS to KD value for KRAS) [3] | NRAS/KRAS (ratio of KD value for NRAS to KD value for KRAS) [4]
3 | 13.5 | 0.11 |  |  | CC[C@H](C)[C@@H]1NC(=O)[C@H](CC)N(C)C(=O)C[C@@H](C(=O)N2CCOCC2)N(C)C(=O)[C@H](C2CCCC2)N(C)C(=O)C2(CCC2)NC(=O)[C@@H]2CCCN2C(=O)[C@H](CCc2cc(F)c(C(F)(F)F)c(F)c2)NC(=O)CN(C)C(=O)[C@H](Cc2ccc(C(F)(F)F)cc2)N2C[C@H](C)CC[C@@H](C2=O)N(C)C(=O)CN(C)C1=O [PP1384] | B (a compound having 3 or more and less than 10 is denoted as B) | A (a compound having 10 or more and less than 20 is denoted as A) |  |  |  | 
4 | 96.4 |  | 1.9 |  | CCC[C@H]1C(=O)N[C@@H]([C@@H](C)CC)C(=O)N(C2CC2)CC(=O)N(C)[C@H]2C/C=C\CCN(C2=O)[C@@H](Cc2ccc(C)cc2)C(=O)N(C)CC(=O)N[C@@H](CCc2ccc(Cl)c(Cl)c2)C(=O)N2C[C@H](OCC)C[C@H]2C(=O)NC2(CC(C)(C)C2)C(=O)N(C)[C@@H](C(CC)CC)C(=O)N(C)[C@H](C(=O)N(C)C)CC(=O)N1C [PP2561] |  |  | A (a compound having 10 or more and less than 20 is denoted as A) | AA (a compound having 20 or more is denoted as AA) |  | 
5 | 3.6 |  | 0.48 |  | CCCN1C(=O)CN(C)C(=O)CN(CC)C(=O)[C@H]([C@@H](C)CC)NC(=O)[C@H](CC(C)C)N(C)C(=O)C[C@@H](C(=O)N2CCOCC2)N(C)C(=O)[C@H](C2CCCC2)N(C)C(=O)C2(CCC2)NC(=O)[C@@H]2CCCN2C(=O)[C@H](CCc2ccc(C(F)(F)F)c(Cl)c2)NC(=O)CN(C)C(=O)[C@@H]1Cc1ccc(C(F)(F)F)cc1 [PP0398] ([NMeL]I[NEtG][Sar][NPrPhe(4-CF3)][Sar][hPhe(3-Cl-4-CF3)]P[Ac4c][NMeGly(cPent)][NMeD]-Morpholide; lactam N-11) |  |  |  |  | C (A compound having a KD ratio of 0.1 or more and less than 3 is denoted as C) | B (a compound having 3 or more and less than 10 is denoted as B)
